Source: patent publication US10202380B2, “Pesticidally active tetracyclic derivatives with sulfur containing substituents” (Syngenta Participations AG, priority 2015, dated 2019)

What was measured:
Type in all cases: in vivo
[1] = system: Plutella xylostella; assay: Plutella xylostella (Diamond Back Moth); conditions: 120 h, read-out: effect in at least one of the two categories (mortality or growth inhibition)
Description: (§1) 24-well microtiter plates with artificial diet were treated with aqueous test solutions prepared from 10,000 ppm DMSO stock solutions by pipetting. After drying, the plates were infested with L2 larvae (10 to 15 per well). The samples were assessed for mortality and growth inhibition in comparison to untreated samples 5 days after infestation.

[2] = system: Euschistus heros; assay: Euschistus heros (Neotropical Brown Stink Bug); conditions: in Glycine max, 120 h, read-out: effect in at least one of the two categories (mortality or growth inhibition)
Description: Soybean leaves on agar in 24-well microtiter plates were sprayed with aqueous test solutions prepared from 10,000 ppm DMSO stock solutions. After drying the leaves were infested with N2 nymphs. The samples were assessed for mortality and growth inhibition in comparison to untreated samples 5 days after infestation.

[3] = system: Myzus persicae; assay: Myzus persicae (Green Peach Aphid): Feeding/Contact Activity; conditions: foliar, 144 h
Description: Sunflower leaf discs were placed onto agar in a 24-well microtiter plate and sprayed with aqueous test solutions prepared from 10,000 ppm DMSO stock solutions. After drying, the leaf discs were infested with an aphid population of mixed ages. The samples were assessed for mortality 6 days after infestation.

[4] = system: Diabrotica balteata; assay: Diabrotica balteata (Corn Root Worm); conditions: 96 h, read-out: effect in at least one of the two categories (mortality or growth inhibition)
Description: as §1, with “Maize sprouts placed onto an agar layer in 24-well” for “24-well”, “plates” for “plates with artificial diet”, “spraying.” for “pipetting.”, “(6” for “(10”, “10” for “15”, “4” for “5”

[5] = system: Spodoptera littoralis; assay: Spodoptera littoralis (Egyptian Cotton Leaf Worm), compound in agar absorbed by lettuce roots; conditions: 144 h, read-out: effect in at least one of the three categories (mortality, anti-feeding, or growth inhibition)
Description: Test compounds were applied by pipette from 10,000 ppm DMSO stock solutions into 24-well plates and mixed with agar. Lettuce seeds were placed onto the agar and the multi well plate was dosed by another plate which contained also agar. After 7 days the compound was absorbed by the roots and the lettuce grew into the lid plate. The lettuce leaves were then cut off into the lid plate. Spodoptera eggs were pipetted through a plastic stencil onto a humid gel blotting paper and the lid plate was closed with it. The samples were assessed for mortality, anti-feedant effect and growth inhibition in comparison to untreated samples 6 days after infestation.

[6] = system: Spodoptera littoralis; assay: Spodoptera littoralis (Egyptian Cotton Leaf Worm), sprayed cotton leaf discs; conditions: foliar, 72 h, read-out: control (mortality, anti-feedant effect, growth inhibition)
Description: Cotton leaf discs were placed onto agar in 24-well microtiter plates and sprayed with aqueous test solutions prepared from 10,000 ppm DMSO stock solutions. After drying the leaf discs were infested with five L1 larvae. The samples were assessed for mortality, anti-feeding effect, and growth inhibition in comparison to untreated samples 3 days after infestation. Control of Spodoptera littoralis by a test sample is given when at least one of the categories mortality, anti-feedant effect, and growth inhibition is higher than the untreated sample.

CCSc1c(-c2nc3cc(C(F)(F)F)n(CC)c(=O)c3n2C)sc2ccccc12 [Compound A1, 5-ethyl-2-(3-ethylsulfanylbenzothiophen-2-yl)-3-methyl-6-(trifluoromethyl)imidazo[4,5-c]pyridin-4-one]
≥ 80%: percent control (mortality or growth inhibition) at 200 ppm [1] | percent control (mortality or growth inhibition) at 200 ppm [2] | mortality at 200 ppm [3] | percent control (mortality or growth inhibition) at 200 ppm [4]

CCn1c(C(F)(F)F)cc2nc(-c3sc4ccccc4c3S(=O)(=O)CC)n(C)c2c1=O [Compound A2, 5-ethyl-2-(3-ethylsulfonylbenzothiophen-2-yl)-3-methyl-6-(trifluoromethyl)imidazo[4,5-c] pyridin-4-one]
≥ 80%: percent control (mortality, anti-feedant effect or growth inhibition) at 12.5 ppm [5] | percent control (mortality or growth inhibition) at 200 ppm [1] | percent control (mortality or growth inhibition) at 200 ppm [2] | mortality at 200 ppm [6] | mortality at 200 ppm [3] | percent control (mortality or growth inhibition) at 200 ppm [4]
